These results are taken from patent US11390616B2 (BRISTOL-MYERS SQUIBB COMPANY, priority 2015, dated 2022).

This test concerns the target T1, human APJ receptor (Homo sapiens, UniProt P35414).
T1 construct: expressed in transfected cells; host or cells: HEK293
T1 sequence (P35414 1-380): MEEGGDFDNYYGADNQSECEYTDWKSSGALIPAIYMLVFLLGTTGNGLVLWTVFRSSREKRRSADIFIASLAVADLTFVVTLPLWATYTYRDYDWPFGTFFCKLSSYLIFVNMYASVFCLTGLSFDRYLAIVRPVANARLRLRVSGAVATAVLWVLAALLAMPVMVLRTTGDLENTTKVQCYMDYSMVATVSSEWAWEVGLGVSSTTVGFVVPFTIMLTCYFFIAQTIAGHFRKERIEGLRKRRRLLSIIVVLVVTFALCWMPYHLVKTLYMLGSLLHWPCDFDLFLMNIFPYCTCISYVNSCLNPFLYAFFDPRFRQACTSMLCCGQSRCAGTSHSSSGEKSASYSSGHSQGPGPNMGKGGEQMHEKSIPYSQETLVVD
Kind of test: Intracellular cAMP accumulation assay (APJ hcAMP, HTRF). The format is cell-based. The note with it: HEK293 cells stably expressing human APJ receptor; inhibition of forskolin-mediated cAMP production; read-out: APJ cAMP Potency range. The protocol:
Intracellular cAMP Accumulation Assay
HEK293 cells stably expressing human APJ receptor were used to assess the activity of compounds. Cultured cells were detached and resuspended in the cAMP Homogeneous Time-Resolved Fluorescence (HTRF) assay buffer (Cisbio cat; #62AM4PEJ). The assay was performed in 384-well assay plates (Perkin-Elmer; cat #6008289) according to assay protocol provided by the manufacturer. Serial dilutions of a compound together with assay buffer containing […] IBMX and 2 μM forskolin were added to each well containing 5,000 cells and incubated for 30 minutes at room temperature. Subsequently, cAMP D2 reagent was added in the lysis buffer followed by the EuK antibody (Cisbio; cat #62AM4PEJ) and incubated for 60 min. The fluorescence emission ratio was measured using fluorometer. The intracellular cAMP concentrations (compound-stimulated inhibition of forskolin-mediated cAMP production) were calculated by extrapolation from a standard curve using known cAMP concentrations. The EC50 values were obtained by fitting the data to a sigmoidal concentration-response curve with variable slope. The maximal achievable inhibition of forskolin-induced cAMP levels (Ymax) for each compound was expressed as relative percentage of inhibition attained using pyroglutamated apelin-13 ((Pyr1)apelin-13) peptide, which was set to 100%.
The examples disclosed below were tested in the APJ in vitro assays described above and were found having human APJ cyclic AMP (hcAMP) activity. The EC50 value of each compound is presented at the end of the example description.
The biological activity of the exemplified compounds of this invention determined by the assay described above is shown at the end of each example.
In general terms: cAMP levels reflect the balance of adenylyl cyclase and phosphodiesterase activity.
For the compound `COc1cccc(OC)c1-n1c(CCC(C)C)nc(O)c(Cc2nnc(-c3ccc(C)cc3)o2)c1=O` [Example 21, 3-(2,6-dimethoxyphenyl)-6-hydroxy-2-(3-methylbutyl)-5-{[5-(4-methylphenyl)-1,3,4-oxadiazol-2-yl]methyl}-3,4-dihydropyrimidin-4-one], the EC50 fell in the range of 10 to 100 nM. To `CCc1cccc(CC)c1-n1c(-c2ccn(CC)n2)nc(=O)c(Cc2ccc(-c3ccnc(F)c3C)c(F)c2)c1O` [Example 77, 1-(2,6-diethylphenyl)-2-(1-ethyl-1H-pyrazol-3-yl)-5-{[3-fluoro-4-(2-fluoro-3-methylpyridin-4-yl)phenyl]methyl}-6-hydroxy-1,4-dihydropyrimidin-4-one] belongs 0.01 to 10 nM. Turning to `CC[C@@H](c1cc(F)cc(F)c1)n1c(-c2ccn(CC)n2)nc(=O)c(Cc2ccc(-c3ccncc3C)cc2)c1O` [Example 136, 1-[(1S)-1-(3,5-difluorophenyl)propyl]-2-(1-ethyl-1H-pyrazol-3-yl)-6-hydroxy-5-{[4-(3-methylpyridin-4-yl)phenyl]methyl}-1,4-dihydropyrimidin-4-one], the EC50 is 0.01 to 10 nM. For the compound `CCc1cccc(CC)c1-n1c(-c2csc(C)n2)nc(=O)c(Cc2ccc(-c3ccncc3C)c(F)c2)c1O` [Example 74, 1-(2,6-diethylphenyl)-5-{[3-fluoro-4-(3-methylpyridin-4-yl)phenyl]methyl}-6-hydroxy-2-(2-methyl-1,3-thiazol-4-yl)-1,4-dihydropyrimidin-4-one], the EC50 was 0.01 to 10 nM. To `CCc1cccc(CC)c1-n1c(-c2ccn(C)n2)nc(=O)c(Cc2ccc(-c3ccnc(F)c3C)cc2F)c1O` [Example 86, 1-(2,6-diethylphenyl)-5-{[2-fluoro-4-(2-fluoro-3-methylpyridin-4-yl)phenyl]methyl}-6-hydroxy-2-(1-methyl-1H-pyrazol-3-yl)-1,4-dihydropyrimidin-4-one] belongs 0.01 to 10 nM. To `CCc1cccc(CC)c1-n1c(-c2ccn(CC(C)C)n2)nc(=O)c(Cc2ccc(-c3cccn(C)c3=O)c(F)c2)c1O` [Example 90, 1-(2,6-diethylphenyl)-5-{[3-fluoro-4-(1-methyl-2-oxo-1,2-dihydropyridin-3-yl)phenyl]methyl}-6-hydroxy-2-[1-(2-methylpropyl)-1H-pyrazol-3-yl]-1,4-dihydropyrimidin-4-one] belongs 100 to 300 nM. As for `CCc1cccc(CC)c1-n1c(-c2ccn(C)n2)nc(=O)c(Cc2ccc(-c3ccc(F)nc3C)c(F)c2)c1O` [Example 69, 1-(2,6-diethylphenyl)-5-{[3-fluoro-4-(6-fluoro-2-methylpyridin-3-yl)phenyl]methyl}-6-hydroxy-2-(1-methyl-1H-pyrazol-3-yl)-1,4-dihydropyrimidin-4-one], the EC50 is 0.01 to 10 nM.

For the compound `COc1cccc(OC)c1-n1c(CCC2CC2)nc(O)c(Cc2ccc(-n3ccccc3=O)cc2)c1=O` [Example 41, 2-(2-cyclopropylethyl)-3-(2,6-dimethoxyphenyl)-6-hydroxy-5-{[4-(2-oxo-1,2-dihydropyridin-1-yl)phenyl]methyl}-3,4-dihydropyrimidin-4-one], the EC50 was in the range of 0.01 to 10 nM. To `CCCCc1nc(=O)c(Cc2ccc(-c3ccncc3C)cc2)c(O)n1[C@@H](CC)c1cccc(C#N)c1` [Example 98, 3-[(1S)-1-(2-butyl-6-hydroxy-5-{[4-(3-methylpyridin-4-yl)phenyl]methyl}-4-oxo-1,4-dihydropyrimidin-1-yl)propyl]benzonitrile] belongs 0.01 to 10 nM; to `CCc1cccc(CC)c1-n1c(-c2ccn(C(C)C)n2)nc(=O)c(Cc2ccc(-c3ccnc(F)c3C)c(F)c2)c1O` [Example 85, 1-(2,6-diethylphenyl)-5-{[3-fluoro-4-(2-fluoro-3-methylpyridin-4-yl)phenyl]methyl}-6-hydroxy-2-[1-(propan-2-yl)-1H-pyrazol-3-yl]-1,4-dihydropyrimidin-4-one], 0.01 to 10 nM; to `CCc1cccc(CC)c1-n1c(-c2ccn(C3CC3)n2)nc(=O)c(Cc2ccc(-c3ccc(F)cc3C(N)=O)c(F)c2)c1O` [Example 94, 4′-{[2-(1-cyclopropyl-1H-pyrazol-3-yl)-1-(2,6-diethylphenyl)-6-hydroxy-4-oxo-1,4-dihydropyrimidin-5-yl]methyl}-2′,4-difluoro-[1,1′-biphenyl]-2-carboxamide], 0.01 to 10 nM. To `CCCCc1nc(=O)c(Cc2ccc(C3CC3)cc2)c(O)n1-c1c(CC)cccc1CC` [Example 67, 2-butyl-5-[(4-cyclopropylphenyl)methyl]-1-(2,6-diethylphenyl)-6-hydroxy-1,4-dihydropyrimidin-4-one] belongs 0.01 to 10 nM; to `CCOCc1nc(O)c(Cc2coc(-c3ccc(Cl)cc3)n2)c(=O)n1-c1c(OC)cccc1OC` [Example 33, 5-{[2-(4-chlorophenyl)-1,3-oxazol-4-yl]methyl}-3-(2,6-dimethoxyphenyl)-2-(ethoxymethyl)-6-hydroxy-3,4-dihydropyrimidin-4-one], 10 to 100 nM; to `CC[C@@H](c1cc(F)cc(F)c1)n1c(COC(C)C)nc(=O)c(Cc2ccc(-c3ccc(F)nc3C)cc2)c1O` [Example 112, 1-[(1S)-1-(3,5-difluorophenyl)propyl]-5-{[4-(6-fluoro-2-methylpyridin-3-yl)phenyl]methyl}-6-hydroxy-2-[(propan-2-yloxy)methyl]-1,4-dihydropyrimidin-4-one], 0.01 to 10 nM.

Turning to `CCCCc1nc(O)c(Cc2ccc(-n3cccn3)cc2)c(=O)n1-c1c(OC)cccc1OC` [Example 5, 2-butyl-3-(2,6-dimethoxyphenyl)-6-hydroxy-5-{[4-(1H-pyrazol-1-yl)phenyl]methyl}-3,4-dihydropyrimidin-4-one], the EC50 is 0.01 to 10 nM.

Consider `CCCCc1nc(O)c(Cc2cc(C)on2)c(=O)n1-c1c(OC)cccc1OC` [Example 8, 2-butyl-3-(2,6-dimethoxyphenyl)-6-hydroxy-5-[(5-methyl-1,2-oxazol-3-yl)methyl]-3,4-dihydropyrimidin-4-one], for which the EC50 lay in the range of 10 to 100 nM. Turning to `CCCCc1nc(O)c(Cc2ccc(N3CCOCC3)cc2)c(=O)n1-c1c(OC)cccc1OC` [Example 36, 2-butyl-3-(2,6-dimethoxyphenyl)-6-hydroxy-5-{[4-(morpholin-4-yl)phenyl]methyl}-3,4-dihydropyrimidin-4-one], the EC50 was in the range of 0.01 to 10 nM.

As for `CCCCc1nc(O)c(Cc2ccc(-n3ccc(C)cc3=O)cc2)c(=O)n1-c1c(OC)cccc1OC` [Example 43, 2-butyl-3-(2,6-dimethoxyphenyl)-6-hydroxy-5-{[4-(4-methyl-2-oxo-1,2-dihydropyridin-1-yl)phenyl]methyl}-3,4-dihydropyrimidin-4-one], the EC50 fell in the range of 0.01 to 10 nM.

For the compound `CCc1cccc(CC)c1-n1c(-c2nc(C)cs2)nc(=O)c(Cc2ccc(-c3ccncc3C)c(F)c2)c1O` [Example 75, 1-(2,6-diethylphenyl)-5-{[3-fluoro-4-(3-methylpyridin-4-yl)phenyl]methyl}-6-hydroxy-2-(4-methyl-1,3-thiazol-2-yl)-1,4-dihydropyrimidin-4-one], the EC50 was 0.01 to 10 nM.

`CCc1cccc(CC)c1-n1c(-c2nc(C)cs2)nc(=O)c(Cc2ccc(-c3ccnc(F)c3C)c(F)c2)c1O` [Example 73, 1-(2,6-diethylphenyl)-5-{[3-fluoro-4-(2-fluoro-3-methylpyridin-4-yl)phenyl]methyl}-6-hydroxy-2-(4-methyl-1,3-thiazol-2-yl)-1,4-dihydropyrimidin-4-one]: the EC50 is 0.01 to 10 nM.

`CC[C@@H](c1cc(F)cc(F)c1)n1c(-c2ccn(CC)n2)nc(=O)c(Cc2ccc(-c3cccnc3C)cc2)c1O` [Example 133, 1-[(1S)-1-(3,5-difluorophenyl)propyl]-2-(1-ethyl-1H-pyrazol-3-yl)-6-hydroxy-5-{[4-(2-methylpyridin-3-yl)phenyl]methyl}-1,4-dihydropyrimidin-4-one]: the EC50 lay within 0.01 to 10 nM. To `CCOCc1nc(=O)c(Cc2ccc(-c3ccc(F)nc3)cc2)c(O)n1[C@@H](COC)c1cc(F)cc(F)c1` [Example 125, 1-[(1R)-1-(3,5-difluorophenyl)-2-methoxyethyl]-2-(ethoxymethyl)-5-{[4-(6-fluoropyridin-3-yl)phenyl]methyl}-6-hydroxy-1,4-dihydropyrimidin-4-one] belongs 10 to 100 nM; to `COc1cccc(OC)c1-n1c(CCC(C)C)nc(O)c(Cc2ccc(-c3ncon3)cc2)c1=O` [Example 17, 3-(2,6-dimethoxyphenyl)-6-hydroxy-2-(3-methylbutyl)-5-{[4-(1,2,4-oxadiazol-3-yl)phenyl]methyl}-3,4-dihydropyrimidin-4-one], 10 to 100 nM.
